Patent US20250092065A1, “2-(INDAZOL-5-YL)-6-(PIPERIDIN-4-YL)-1,7-NAPHTHYRIDINE DERIVATIVES AND RELATED COMPOUNDS AS MODULATORS FOR SPLICING NUCLEIC ACIDS AND FOR THE TREATMENT OF PROLIFERATIVE DISEASES” (REMIX THERAPEUTICS INC., priority 2022, published 2025)
Where two headings read alike, the source gives them in different places.

What was measured:
HTT mRNA = experiment: RT-qPCR splicing assay, HTT mRNA canonical (CJ) and alternative (AJ) junction; type: cell-based, human; conditions: Homo sapiens; for AC50: HTT alternative junction mRNA, read-out: HTT AJ (increase in AJ mRNA, AC50)
How it was run: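 A673 or K562 cells treated 24 h at 37 °C with an 11-point 3-fold dilution series (top 10 uM, DMSO ≤0.25%). Lysates went directly to one-step RT-qPCR quantifying canonical (CJ) and alternative-exon (AJ) junctions, normalized to GAPDH, GUSB or PPIA. Values from ΔΔCt versus DMSO, RQ = 2^(−ΔΔCt), expressed as percentage response.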

Target C = experiment: RT-qPCR canonical junction panel assay, Target C mRNA; type: cell-based; conditions: Table 4, read-out: Target C IC50 (decrease in CJ mRNA levels)
How it was run: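 A673 or K562 cells treated with compound; CJ mRNA quantified by junction-spanning RT-qPCR probe after cDNA synthesis, normalised to GAPDH, GUSB or PPIA and DMSO (2^−ΔΔCt), scaled to set ΔCt assay window; IC50 from 4-parameter fit of CJ decrease.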

K562 cells = experiment: Cell Titer Glo 2.0 cell viability (toxicity) assay, K562; conditions: 500 cells/well, 72 hours
[1] = HTT canonical junction mRNA, RT-qPCR, read-out: HTT CJ (decrease in CJ mRNA levels, IC50)
[2] = canonical junction qPCR panel, Table 4, read-out: HTT IC50 (decrease in CJ mRNA levels)

Structure (SMILES) | AC50 (HTT mRNA; RT-qPCR) | IC50 (HTT mRNA; [1]) | IC50 (HTT mRNA; [2]) | IC50 (Target C) | Effect of Exemplary Compounds on Cell Viability, K562 (K562 cells)
Cn1cc2cc(-c3ccc4nc(N5CC[C@H](NC6CCC6)C5)ccc4n3)c(O)c(F)c2n1 (single isomer, unassigned) [Compound 317] | < 0.1 µM | < 0.1 µM | < 0.1 µM | < 0.1 µM | A (A represents <100 nM)
Cc1c(O)c(-c2ccc3nc(N4CC[C@@H](NC(C)C)C4)ccc3n2)cc2cn(C)nc12 (single isomer, unassigned) [Compound 319] | < 0.1 µM | < 0.1 µM | < 0.1 µM | < 0.1 µM | A (A represents <100 nM)
Cc1c(O)c(-c2ccc3nc(N4CC[C@H](NCC5CC5)C4)ccc3n2)cc2cn(C)nc12 (single isomer, unassigned) [Compound 321] | < 0.1 µM | < 0.1 µM | < 0.1 µM | < 0.1 µM | B (B represents 100-1000 nM)
Cc1c(O)c(-c2ccc3nc(N4CC[C@@H](NCC5CC5)C4)ccc3n2)cc2cn(C)nc12 (single isomer, unassigned) [Compound 322] | < 0.1 µM | < 0.1 µM | < 0.1 µM | < 0.1 µM | B (B represents 100-1000 nM)
Cc1nc2c(F)c(O)c(-c3ccc4nc(N5CC[C@@H](NCC6CC6)C5)ccc4n3)cc2o1 (single isomer, unassigned) [Compound 323] | < 0.1 µM | < 0.1 µM | < 0.1 µM | < 0.1 µM | A (A represents <100 nM)
Cc1nc2c(F)c(O)c(-c3ccc4nc(N5CC[C@H](NCC6CC6)C5)ccc4n3)cc2o1 (single isomer, unassigned) [Compound 324] | < 0.1 µM | < 0.1 µM | < 0.1 µM | < 0.1 µM | A (A represents <100 nM)
Cc1nc2c(F)c(O)c(-c3ccc4nc(N5CC[C@@H](NC(C)C)C5)ccc4n3)cc2o1 (single isomer, unassigned) [Compound 329] | < 0.1 µM | < 0.1 µM | < 0.1 µM | < 0.1 µM | A (A represents <100 nM)
Cc1nc2c(F)c(O)c(-c3ccc4nc(N5CC[C@H](NC(C)C)C5)ccc4n3)cc2o1 (single isomer, unassigned) [Compound 330] | < 0.1 µM | < 0.1 µM | < 0.1 µM | < 0.1 µM | A (A represents <100 nM)
Cn1cc2cc(-c3ccc4nc(N5CC[C@H](N[C@H]6C[C@H](F)C6)C5)ccc4n3)c(O)c(F)c2n1 (single isomer, unassigned) [Compound 347] | < 0.1 µM | < 0.1 µM | < 0.1 µM | < 0.1 µM | A (A represents <100 nM)
Cc1nc2cc(O)c(-c3ccc4nc(N5CC[C@@H](N[C@H]6C[C@H](F)C6)C5)ccc4n3)cc2o1 (single isomer, unassigned) [Compound 348] | 0.1 to 1 µM | 0.1 to 1 µM | 0.1 to 1 µM | 0.1 to 1 µM | C (C represents 1000-9999 nM)
Cn1cc2cc(-c3ccc4nc(N5CC[C@@H](N[C@H]6C[C@H](F)C6)C5)ccc4n3)c(O)c(F)c2n1 (single isomer, unassigned) [Compound 349] | < 0.1 µM | < 0.1 µM | < 0.1 µM | < 0.1 µM | B (B represents 100-1000 nM)
Cc1nc2c(C)c(O)c(-c3ccc4nc(N5CC[C@H](N[C@H]6C[C@H](F)C6)C5)ccc4n3)cc2o1 (single isomer, unassigned) [Compound 351] | < 0.1 µM | < 0.1 µM | < 0.1 µM | < 0.1 µM | B (B represents 100-1000 nM)
Cc1nc2c(C)c(O)c(-c3ccc4nc(N5CC[C@@H](N[C@H]6C[C@H](F)C6)C5)ccc4n3)cc2o1 (single isomer, unassigned) [Compound 352] | < 0.1 µM | < 0.1 µM | < 0.1 µM | < 0.1 µM | B (B represents 100-1000 nM)
Cc1nc2c(F)c(O)c(-c3ccc4nc(N5CC[C@@H](NC6(C)CC6)C5)ccc4n3)cc2o1 (stereo in doubt) [Compound 326, 4-fluoro-2-methyl-6-{6-[(3 S)-3-[(1-methylcyclopropyl)amino]pyrrolidin-1-yl]-1,5-naphthyridin-2-yl}-1,3-benzoxazol-5-ol] | < 0.1 µM | < 0.1 µM | < 0.1 µM | < 0.1 µM | A (A represents <100 nM)
Cc1nc2c(F)c(O)c(-c3ccc4nc(N5CCC(NC6(C)CC6)C5)ccc4n3)cc2o1 (stereo in doubt) [Compound 327, 4-fluoro-2-methyl-6-{6-[(3R)-3-[(1-methylcyclopropyl)amino]pyrrolidin-1-yl]-1,5-naphthyridin-2-yl}-1,3-benzoxazol-5-ol] | < 0.1 µM | < 0.1 µM | < 0.1 µM | < 0.1 µM | B (B represents 100-1000 nM)
Cc1nc2c(C)c(O)c(-c3ccc4nc(N5CC[C@H](NC(C)(C)C)C5)ccc4n3)cc2o1 [Compound 214] | < 0.1 µM | < 0.1 µM | < 0.1 µM | < 0.1 µM | A (A represents <100 nM)
Cc1nc2c(C)c(O)c(-c3ccc4nc(N5CC[C@H](NC6CC6)C5)ccc4n3)cc2o1 [Compound 216] | < 0.1 µM | < 0.1 µM | < 0.1 µM | < 0.1 µM | B (B represents 100-1000 nM)
Cc1nc2c(C)c(O)c(-c3ccc4nc(N5CC[C@@H](NC6CC6)C5)ccc4n3)cc2o1 [Compound 217] | < 0.1 µM | < 0.1 µM | < 0.1 µM | < 0.1 µM | B (B represents 100-1000 nM)
Cn1cc2cc(-c3ccc4nc(N5CCC(NC6(C)CC6)C5)ccc4n3)c(O)cc2n1 (stereo not drawn) [Compound 219] | < 0.1 µM | < 0.1 µM | < 0.1 µM | < 0.1 µM | A (A represents <100 nM)
Cc1nc2cc(O)c(-c3ccc4nc(N5CC[C@@H](NC6CCC6)C5)ccc4n3)cc2o1 [Compound 229] | < 0.1 µM | < 0.1 µM | < 0.1 µM | 0.1 to 1 µM | B (B represents 100-1000 nM)
Cc1nc2cc(O)c(-c3ccc4nc(N5CC[C@H](NC6CCC6)C5)ccc4n3)cc2o1 [Compound 230] | < 0.1 µM | < 0.1 µM | < 0.1 µM | 0.1 to 1 µM | B (B represents 100-1000 nM)
Cc1nc2cc(O)c(-c3ccc4nc(N5CCC(NC(C)C)C5)ccc4n3)cc2o1 (stereo not drawn) [Compound 231] | < 0.1 µM | < 0.1 µM | < 0.1 µM | < 0.1 µM | A (A represents <100 nM)
Cc1nc2c(C)c(O)c(-c3ccc4nc(N5CCC(NC6CCC6)C5)ccc4n3)cc2o1 (stereo not drawn) [Compound 235] | < 0.1 µM | < 0.1 µM | < 0.1 µM | 0.1 to 1 µM | B (B represents 100-1000 nM)
Cc1nc2c(C)c(O)c(-c3ccc4nc(N5CC[C@@H](NC6CCC6)C5)ccc4n3)cc2o1 [Compound 236] | < 0.1 µM | < 0.1 µM | < 0.1 µM | 0.1 to 1 µM | B (B represents 100-1000 nM)
